Reference: patent EP0908457B1, “3-(1,2-benzisothiazol- and isoxazol-5-Y1)-2,4(1H,3H)-pyrimidinedione or thione and 3-(1,2-benzisothiazol- and isoxazol-5-y1)-4(3H)-pyrimidinone or thione herbicidal agents” (BASF AKTIENGESELLSCHAFT, priority 1997, dated 1999)

Experiments:
Cyperus iria = test: Preemergence weed control under flooded paddy conditions, CYPIR (Rice Flatsedge); assay type: in vivo; conditions: flooded paddy, rated three to four weeks after treatment; for herbicidal effect rating, CYPIR: preemergence weeds; for CYPIR herbicidal effect rating: preemergence; for herbicidal effect rating, CYPIR: meaning of each grade not given here
Sagittaria pygmaea, L. = test: Preemergence weed control under flooded paddy conditions, SAGPY (Arrowhead (Pygmaea)); assay type: in vivo; conditions: flooded paddy, rated three to four weeks after treatment; for herbicidal effect rating, SAGPY: preemergence weeds; for SAGPY herbicidal effect rating: preemergence; for herbicidal effect rating, SAGPY: meaning of each grade not given here
[1] = tested on: Echinochloa oryzoides (Ard.) Fritsch.; test: Preemergence weed control under flooded paddy conditions, ECHORC (Watergrass (Calif.)); assay type: in vivo; conditions: flooded paddy, rated three to four weeks after treatment; for herbicidal effect rating, ECHORC: preemergence weeds; for ECHORC herbicidal effect rating: preemergence; for herbicidal effect rating, ECHORC: meaning of each grade not given here
[2] = tested on: Cyperus serotinus, Rottb.; test: Preemergence weed control under flooded paddy conditions, CYPSE (Flatsedge); assay type: in vivo; conditions: rated three to four weeks after treatment; for herbicidal effect rating, CYPSE: preemergence weeds; for CYPSE herbicidal effect rating: preemergence; for herbicidal effect rating, CYPSE: meaning of each grade not given here
[3] = tested on: Oryza sativa, (L.) Tebonnet; test: Rice tolerance to post-transplant applications under flooded paddy conditions (Example 187), ORYSAT (Rice, Tebonnet); conditions: rated three to four weeks after treatment
[4] = tested on: Monochoria vaginalis, Presl.; test: Preemergence weed control under flooded paddy conditions, MOOVA (Monochoria); assay type: in vivo; conditions: flooded paddy, rated three to four weeks after treatment; for herbicidal effect rating, MOOVA: preemergence weeds; for MOOVA herbicidal effect rating: preemergence; for herbicidal effect rating, MOOVA: meaning of each grade not given here

Row | SMILES | herbicidal effect rating, CYPIR (Cyperus iria; 0.2500 kg/ha) | herbicidal effect rating, SAGPY (Sagittaria pygmaea, L.; 0.2500 kg/ha) | herbicidal effect rating, ECHORC ([1]; 0.2500 kg/ha) | herbicidal effect rating, CYPSE ([2]; 0.2500 kg/ha) | herbicidal effect rating, ORYSAT (rice tolerance) ([3]; 0.2500 kg/ha) | herbicidal effect rating, MOOVA ([4]; 0.2500 kg/ha) | CYPIR herbicidal effect rating (Cyperus iria; Rate 0.0313 kg/ha) | CYPIR herbicidal effect rating (Cyperus iria; Rate 0.0625 kg/ha) | SAGPY herbicidal effect rating (Sagittaria pygmaea, L.; Rate 0.0313 kg/ha) | SAGPY herbicidal effect rating (Sagittaria pygmaea, L.; Rate 0.0625 kg/ha) | SAGPY herbicidal effect rating (Sagittaria pygmaea, L.; Rate 0.1250 kg/ha) | ECHORC herbicidal effect rating ([1]; Rate 0.0313 kg/ha) | ECHORC herbicidal effect rating ([1]; Rate 0.0625 kg/ha) | ECHORC herbicidal effect rating ([1]; Rate 0.1250 kg/ha) | CYPSE herbicidal effect rating ([2]; Rate 0.0313 kg/ha) | CYPSE herbicidal effect rating ([2]; Rate 0.0625 kg/ha) | CYPSE herbicidal effect rating ([2]; Rate 0.1250 kg/ha) | ORYSAT herbicidal effect rating ([3]; Rate 0.0313 kg/ha) | ORYSAT herbicidal effect rating ([3]; Rate 0.0625 kg/ha) | ORYSAT herbicidal effect rating ([3]; Rate 0.1250 kg/ha) | other results
1 | CCCCOCc1nsc2ccc(-n3c(=O)cc(C(F)(F)F)n(C)c3=O)cc12 [Example 204, 3-[3-(Butoxymethyl)-1,2-benzisothiazol-5-yl]-1-methyl-6-(trifluoromethyl)-2,4(1H,3H)-pyrimidinedione] | 9.0 | 0.0 | 9.0 | 7.0 | 7.0 | 7.0 | – | – | – | – | – | – | – | – | – | – | – | – | – | – | herbicidal effect rating, CYPIR (Cyperus iria; 0.0313 kg/ha): 9.0; herbicidal effect rating, CYPIR (Cyperus iria; 0.0625 kg/ha): 9.0; herbicidal effect rating, CYPIR (Cyperus iria; 0.1250 kg/ha): 9.0; herbicidal effect rating, SAGPY (Sagittaria pygmaea, L.; 0.0313 kg/ha): 0.0; herbicidal effect rating, SAGPY (Sagittaria pygmaea, L.; 0.0625 kg/ha): 0.0; herbicidal effect rating, SAGPY (Sagittaria pygmaea, L.; 0.1250 kg/ha): 0.0; herbicidal effect rating, ECHORC ([1]; 0.0313 kg/ha): 0.0; herbicidal effect rating, ECHORC ([1]; 0.0625 kg/ha): 2.0; herbicidal effect rating, ECHORC ([1]; 0.1250 kg/ha): 4.0; herbicidal effect rating, CYPSE ([2]; 0.0313 kg/ha): 0.0; herbicidal effect rating, CYPSE ([2]; 0.0625 kg/ha): 0.0; herbicidal effect rating, CYPSE ([2]; 0.1250 kg/ha): 2.0; herbicidal effect rating, ORYSAT (rice tolerance) ([3]; 0.0313 kg/ha): 3.0; herbicidal effect rating, ORYSAT (rice tolerance) ([3]; 0.0625 kg/ha): 4.0; herbicidal effect rating, ORYSAT (rice tolerance) ([3]; 0.1250 kg/ha): 7.0; herbicidal effect rating, MOOVA ([4]; 0.0313 kg/ha): 0.0; herbicidal effect rating, MOOVA ([4]; 0.0625 kg/ha): 2.0; herbicidal effect rating, MOOVA ([4]; 0.1250 kg/ha): 4.0
2 | C=CC(C)OCc1nsc2ccc(-n3c(=O)cc(C(F)(F)F)n(C)c3=O)cc12 (centres unmarked) [Example 206, 1-Methyl-3-{3-[(1-methylallyloxy)methyl]-1,2-benzisothiazol-5-yl]-6-(trifluoromethyl)-2,4(1H,3H)-pyrimidinedione] | 9.0 | 4.0 | 9.0 | 7.0 | 9.0 | 4.0 | – | – | – | – | – | – | – | – | – | – | – | – | – | – | herbicidal effect rating, CYPIR (Cyperus iria; 0.0313 kg/ha): 9.0; herbicidal effect rating, CYPIR (Cyperus iria; 0.0625 kg/ha): 9.0; herbicidal effect rating, CYPIR (Cyperus iria; 0.1250 kg/ha): 9.0; herbicidal effect rating, SAGPY (Sagittaria pygmaea, L.; 0.0313 kg/ha): 0.0; herbicidal effect rating, SAGPY (Sagittaria pygmaea, L.; 0.0625 kg/ha): 0.0; herbicidal effect rating, SAGPY (Sagittaria pygmaea, L.; 0.1250 kg/ha): 1.0; herbicidal effect rating, ECHORC ([1]; 0.0313 kg/ha): 0.0; herbicidal effect rating, ECHORC ([1]; 0.0625 kg/ha): 2.0; herbicidal effect rating, ECHORC ([1]; 0.1250 kg/ha): 2.0; herbicidal effect rating, CYPSE ([2]; 0.0313 kg/ha): 0.0; herbicidal effect rating, CYPSE ([2]; 0.0625 kg/ha): 2.0; herbicidal effect rating, CYPSE ([2]; 0.1250 kg/ha): 7.0; herbicidal effect rating, ORYSAT (rice tolerance) ([3]; 0.0313 kg/ha): 5.0; herbicidal effect rating, ORYSAT (rice tolerance) ([3]; 0.0625 kg/ha): 6.0; herbicidal effect rating, ORYSAT (rice tolerance) ([3]; 0.1250 kg/ha): 7.0; herbicidal effect rating, MOOVA ([4]; 0.0313 kg/ha): 0.0; herbicidal effect rating, MOOVA ([4]; 0.0625 kg/ha): 0.0; herbicidal effect rating, MOOVA ([4]; 0.1250 kg/ha): 1.0
3 | Cn1c(C(F)(F)F)cc(=O)n(-c2ccc3snc(COC(CF)CF)c3c2)c1=O [Example 207, 3-{3-{[2-Fluoro-1-(fluoromethyl)ethoxy]methyl}-1,2-benzisothiazol-5-yl}-1-methyl-6-(trifluoromethyl)-2,4(1H,3H)-pyrimidinedione] | 8.5 | 1.0 | 5.5 | 6.0 | 7.5 | 7.5 | 5.5 | 6.5 | 0.0 | 0.0 | 0.0 | 1.0 | 1.5 | 2.0 | 0.0 | 0.0 | 1.0 | 5.0 | 6.0 | 7.0 | CYPIR herbicidal effect rating (Cyperus iria; Rate 0.1250 kg/ha): 8.5; MOOVA herbicidal effect rating ([4]; Rate 0.0313 kg/ha): 4.0; MOOVA herbicidal effect rating ([4]; Rate 0.0625 kg/ha): 4.5; MOOVA herbicidal effect rating ([4]; Rate 0.1250 kg/ha): 5.5
4 | Cn1c(C(F)(F)F)cc(=O)n(-c2ccc3snc(COC4C=CCCC4)c3c2)c1=O (centres unmarked) [Example 209, 3-{3-[(2-Cyclohexen-1-yloxy)methyl]-1,2-benzisothiazol-5-yl}-1-methyl-6-(trifluoromethyl)-2,4(1H,3H)-pyrimidinedione] | – | – | – | – | – | – | 2.0 | 4.0 | 0.0 | 0.0 | 0.0 | 1.0 | 2.0 | 2.0 | 0.0 | 0.0 | 0.0 | 3.0 | 3.0 | 4.0 | CYPIR herbicidal effect rating (Cyperus iria; Rate 0.1250 kg/ha): 8.0; MOOVA herbicidal effect rating ([4]; Rate 0.0313 kg/ha): 0.0; MOOVA herbicidal effect rating ([4]; Rate 0.0625 kg/ha): 0.0; MOOVA herbicidal effect rating ([4]; Rate 0.1250 kg/ha): 0.0
5 | CC(C)=CCOCc1nsc2ccc(-n3c(=O)cc(C(F)(F)F)n(C)c3=O)cc12 [Example 210, 1-Methyl-3-{3-[(3-methyl-2-butenyloxy)methyl]-1,2-benzisothiazol-5-yl}-6-(trifluoromethyl)-2,4(1H,3H)-pyrimidinedione] | – | – | – | – | – | – | 2.0 | 7.0 | 0.0 | 0.0 | 0.0 | 9.0 | 9.0 | 9.0 | 0.0 | 0.0 | 0.0 | 3.0 | 4.0 | 6.0 | CYPIR herbicidal effect rating (Cyperus iria; Rate 0.2500 kg/ha): 7.0; SAGPY herbicidal effect rating (Sagittaria pygmaea, L.; Rate 0.2500 kg/ha): 0.0; ECHORC herbicidal effect rating ([1]; Rate 0.2500 kg/ha): 9.0; CYPSE herbicidal effect rating ([2]; Rate 0.2500 kg/ha): 0.0; ORYSAT herbicidal effect rating ([3]; Rate 0.2500 kg/ha): 7.0; MOOVA herbicidal effect rating ([4]; Rate 0.0313 kg/ha): 9.0; MOOVA herbicidal effect rating ([4]; Rate 0.0625 kg/ha): 9.0; MOOVA herbicidal effect rating ([4]; Rate 0.1250 kg/ha): 9.0; MOOVA herbicidal effect rating ([4]; Rate 0.2500 kg/ha): 9.0
